Experimental findings from US20260132158A1, “PHENYL OXY AMIDE KINASE INHIBITORS” (THE TRANSLATIONAL GENOMICS RESEARCH INSTITUTE, priority 2022, published 2026) are described below.

This assay has as its target T1, RON Kinase (Homo sapiens, UniProt Q04912).
T1 construct: purchased Promega V8071
In words: RON Kinase ADP Glo Assay. In kind it is biochemical. The conditions noted are these: ratio cMET IC50 / RON IC50. As to the method:
RON Kinase ADP Glo Assay • Assay Buffer: 40 mM Tris-HCl, pH7.5, 20 mM MgCl2, 0.1 mg/mL BSA • RON Kinase+ADP-Glo™ Assay (Promega #: V8071) • Substrate: […] Axltide • Enzyme: 100 ng/μL RON Kinase • ATP: 10 mM • ADP-Glo™ Reagent • Kinase Detection Reagent • 384-well white assay plates Kinase assay was done by following instructions from the kit. Briefly, a ten-point serial dilution of compound was prepared at 5× in assay buffer with the final assay concentrations starting at 300 nM, 100 nM, 30 nM, 10 nM . . . 0 nM. Enzyme, substrate, and ATP were used at 25 ng, 2000 ng, and 25 µM, respectively. The assay plate was set up by mixing the components in a total reaction volume of 10 μL per well. The plate was centrifuged gently for 10 seconds and incubated at room temperature (RT) for 60 minutes in the dark. The ADP-Glo Reagent and kinase detection reagent were added and incubated as recommended. The reaction was quantified by measuring luminescence on the Perkin Elmer Envision plate reader.

Molecules are shown by their SMILES.

T1 sequence (Q04912 25-1400): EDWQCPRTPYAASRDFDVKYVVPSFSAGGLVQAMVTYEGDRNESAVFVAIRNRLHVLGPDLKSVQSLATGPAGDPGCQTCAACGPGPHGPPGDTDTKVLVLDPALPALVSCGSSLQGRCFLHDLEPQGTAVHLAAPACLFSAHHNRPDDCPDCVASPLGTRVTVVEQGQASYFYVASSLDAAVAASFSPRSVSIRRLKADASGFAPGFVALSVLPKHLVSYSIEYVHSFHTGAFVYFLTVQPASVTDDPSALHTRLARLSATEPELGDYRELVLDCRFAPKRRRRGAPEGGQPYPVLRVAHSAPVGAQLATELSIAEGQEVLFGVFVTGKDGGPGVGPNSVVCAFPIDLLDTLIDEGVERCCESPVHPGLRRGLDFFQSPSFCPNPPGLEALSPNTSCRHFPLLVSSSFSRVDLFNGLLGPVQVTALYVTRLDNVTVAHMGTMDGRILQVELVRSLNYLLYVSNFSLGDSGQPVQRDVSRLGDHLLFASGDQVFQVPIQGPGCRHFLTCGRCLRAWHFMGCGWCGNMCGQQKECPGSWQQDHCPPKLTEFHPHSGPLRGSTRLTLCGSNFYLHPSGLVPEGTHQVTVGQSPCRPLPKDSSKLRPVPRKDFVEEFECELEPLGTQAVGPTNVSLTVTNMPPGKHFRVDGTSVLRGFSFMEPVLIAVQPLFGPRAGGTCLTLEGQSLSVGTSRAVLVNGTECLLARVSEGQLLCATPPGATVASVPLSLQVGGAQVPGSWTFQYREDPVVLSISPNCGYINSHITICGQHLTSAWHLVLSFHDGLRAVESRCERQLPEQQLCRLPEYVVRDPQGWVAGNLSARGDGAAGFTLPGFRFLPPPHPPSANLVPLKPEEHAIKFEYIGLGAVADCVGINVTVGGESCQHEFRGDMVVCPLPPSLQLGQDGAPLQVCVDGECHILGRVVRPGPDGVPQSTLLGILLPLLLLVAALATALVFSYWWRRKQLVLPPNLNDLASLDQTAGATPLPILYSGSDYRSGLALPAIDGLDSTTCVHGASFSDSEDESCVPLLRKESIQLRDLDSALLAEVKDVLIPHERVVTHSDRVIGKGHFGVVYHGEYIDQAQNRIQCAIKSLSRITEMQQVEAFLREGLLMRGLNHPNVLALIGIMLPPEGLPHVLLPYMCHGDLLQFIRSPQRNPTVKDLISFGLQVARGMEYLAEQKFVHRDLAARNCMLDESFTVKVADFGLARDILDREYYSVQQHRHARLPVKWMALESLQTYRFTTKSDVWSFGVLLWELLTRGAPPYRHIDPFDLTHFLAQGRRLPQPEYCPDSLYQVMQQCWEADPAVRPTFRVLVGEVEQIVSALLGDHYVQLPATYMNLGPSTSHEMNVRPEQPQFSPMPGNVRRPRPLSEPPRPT

Turning to `CP(C)(=O)c1cccc(Nc2nccc(Oc3ccc(NC(=O)c4cnn(-c5ccc(F)cc5)c4C(F)(F)F)cc3F)n2)c1` [Compound 26, N-(4-((2-((3-(dimethylphosphoryl)phenyl)amino)pyrimidin-4-yl)oxy)-3-fluorophenyl)-1-(4-fluorophenyl)-5-(trifluoromethyl)-1H-pyrazole-4-carboxamide], the “Fold Selectivity (cMET/RON)” value is “+++ (represents a value greater than 3 up to 50)”.

Regarding `Cn1cc(-c2c(Oc3ccc(NC(=O)c4cnn(-c5ccc(F)cc5)c4C(F)(F)F)cc3F)ccnc2N)cn1` [Compound 5, N-(4-((2-amino-3-(1-methyl-1H-pyrazol-4-yl)pyridin-4-yl)oxy)-3-fluorophenyl)-1-(4-fluorophenyl)-5-(trifluoromethyl)-1H-pyrazole-4-carboxamide], the “Fold Selectivity (cMET/RON)” value is reported as “+++ (represents a value greater than 3 up to 50)”.
